Assay results published in patent US9248124B2, “Use of inhibitors of IκB kinase for the treatment of cancer” (Millennium Pharmaceuticals, Inc., priority 2001, dated 2016).
“Also recorded” adds a separate entry of the source.

Tests used:
[1] = tested on: IκBα phosphorylation and degradation in MM.1S cells; assay: Immunoblot of IκBα phosphorylation and degradation triggered by TNFα in MM.1S cells; format: cell-based, human; conditions: Dex 1 μM 18 h, PS-341 5 μM 60 min, compound 1 10 μM 90 min, TNFα 5 ng/mL 5 min, FIG. 7; for TNFα-induced phosphorylation of IκBα: presence or absence of IL-6
Method: (§1) MM cells were cultured with PS-341 or compound 1; harvested; washed; and lysed using lysis buffer: 50 mM Tris-HCl (pH 7.4), 150 mM NaCl, 1% NP-40, 5 mM EDTA, 5 mM NaF, 2 mM Na3VO4, 1 mM PMSF, 5 μg/mL leupeptin, and 5 μg/mL aprotinin. For detection of phospho-IκBα, IκBα, phospho-MAPK, phospho-STAT3, ERK2 or alpha-tubulin, cell lysates were subjected SDS-PAGE, transferred to PVDF membrane (Bio-Rad Laboratories, Hercules, Calif.), and immunoblotted with anti-phospho-IκBα, -IκBα, -phospho-MAPK, or -phospho-STAT3 Abs (Cell Signaling, Beverly, Mass.), and anti-alpha-tubulin (Sigma) Abs.
Inhibition of IκBα phosphorylation by compound 1 was assayed in MM.1S and patient MM cells triggered by TNFα. […] To study the dose-dependent effect of compound 1, MM.1S cells were pre-treated with 1.25-40 μM compound 1 for 90 min, and then stimulated by TNFα (5 ng/mL).
The effect of Dex, compound 1, PS-341 and/or IL-6 on TNFα induced phosphorylation of IκBα in MM.1S cells was next examined. […] In contrast compound 1, in the presence or absence of IL-6, inhibits phosphorylation of IκBα. Dex inhibits TNFα-induced degradation of IκBα, whereas IL-6 blocks this effect. Both PS-341 and compound 1 inhibit degradation of IκBα, in the presence or absence of IL-6.

MM.1S cells [2] = assay: DNA synthesis ([3H]-TdR uptake) in MM.1S cells with Dex, IL-6, Thal or IMiD3; format: cell-based, human; conditions: IMiD3 0.25-1 μM, dose dependent, 48 h; FIG. 9
Method: (§2) Proliferation was measured as previously described (Hideshima et al., Blood 96:2943 (2000)). MM cells (3×10^4 cells/well) were incubated in 96-well culture plates (Costar, Cambridge, Mass.) in the presence of media, PS-341, compound 1 and/or Dex or recombinant human IL-6 (Genetics Institute, Cambridge, Mass.) for 48 h at 37° C. DNA synthesis was measured by [^3H]-thymidine ([^3H]-TdR, NEN Products, Boston, Mass.) uptake. Cells were pulsed with [^3H]TdR (0.5 μCi/well) during the last 8 h of 48 h cultures. All experiments were performed in triplicate.

MM.1S cells [3] = conditions: previously reported, Hideshima et al. Blood 96:2943 (2000); cited from earlier work
[4] = tested on: p42/44 MAPK phosphorylation; assay: Immunoblot of IL-6 induced p42/44 MAPK phosphorylation in MM.1S cells; format: cell-based, human; conditions: IL-6 50 ng/mL for 5 min, compound 1 10 μM 90 min, PS-341 5 μM 60 min, FIG. 5
Method: as §1

[5] = tested on: ICAM-1 and VCAM-1 expression on both BMSCs and MM cells; conditions: Hideshima et al., Cancer Res. 61:3071 (2001); cited from earlier work
[6] = tested on: MM.1S, U266, and RPMI8226 cell lines; assay: DNA synthesis ([3H]-TdR uptake) in MM cell lines; format: cell-based, human; conditions: 48 h; FIG. 3B
Method: as §2
To study the direct effect of compound 1 on MM cells, [3H]-TdR uptake was measured in MM.1S, U266, and RPMI8226 cell lines cultured for 48 h in the presence of compound 1 (1.5-50 μM).

SMILES: C[C@@H]1C[C@H]2[C@@H]3CCC4=CC(=O)C=C[C@]4(C)[C@@]3(F)[C@@H](O)C[C@]2(C)[C@@]1(O)C(=O)CO [Dex, dexamethasone, reference compound]
- TNFα-induced phosphorylation of IκBα [1]: does not inhibit

SMILES: Nc1cccc2c1CN(C1CCC(=O)NC1=O)C2=O (stereo not shown) [IMiD3, reference compound]
- DNA synthesis in MM.1S cell (MM.1S cells [2]): significantly (p<0.001) inhibited
- MM.1S cell growth (MM.1S cells [3]): inhibit

SMILES: COc1cccc(-c2cc(=O)c3ccccc3o2)c1N [PD98059]
- p42/44 MAPK phosphorylation [4]: selectively inhibits

SMILES: CC(C)C[C@H](NC(=O)[C@H](Cc1ccccc1)NC(=O)c1cnccn1)B(O)O [PS-341, reference compound]
- p42/44 MAPK phosphorylation [4]: inhibits
- TNFα induction of ICAM-1 and VCAM-1 expression [5]: blocks induction
- [3H]-TdR uptake in all cell lines tested [6]: completely inhibited
- TNFα-induced phosphorylation of IκBα [1]: does not inhibit; also recorded: enhances
- TNFα-induced degradation of IκBα [1]: inhibit

SMILES: O=C1CCC(N2C(=O)c3ccccc3C2=O)C(=O)N1 (stereo not shown) [Thalidomide]
- MM.1S cell growth (MM.1S cells [3]): inhibit
